The values below come from patent US6939830B1, “Method for fighting soil insects with phenyl-pyrazoles” (Basf Agro B.V. Arnhem (NL) - Wadenswil Branch, priority 1999, dated 2005).

Assay [1] concerns larvae of click beetles of the genus Agriotes, in particular Agriotes lineatus. The experiment in a line: Maize field trial, Beaufort: emerged plants counted after bait granules incorporated in the sowing row. The assay is classed as in vivo. Conditions: 50 days after sowing, 2 mm maize-meal granules with 0.25% fipronil, untreated 30. The source says:
(§1) A surface of 1 ha is sown with maize at the rate of about 98, 100 untreated seeds. This surface is divided into 27-m^2 plots. At the same time as the sowing, there are incorporated into the soil, in the sowing row, 2 mm granules containing a composition consisting of: The quantities of granules thus spread vary from 2.5 to 10 kg per hectare. Untreated plots are kept to serve as control and to verify the extent of the damage by the insects. Likewise, the plots will be treated with a commercial insecticide which is reputed effective and called reference. Each modality is repeated four times. Approximately 50 days after sowing, the maize plants which have emerged are counted. The soil is dug out and scraped in order to capture and identify the insects responsible for the damage; a large presence of larvae of click beetles of the genus Agriotes, in particular Agriotes lineatus.

Assay [2] relates to larvae of click beetles of the genus Agriotes, in particular Agriotes sordidus. The experiment in a line: Maize field trial, St Hilaire: emerged plants counted after bait granules incorporated in the sowing row. The class given is in vivo. Conditions: 22 days after sowing, 2 mm maize-meal granules with 0.25% fipronil, untreated 19.
Description: as §1, with “of 0.1” for “of 1”, “about 8000” for “about 98, 100”, “into 40-m^2” for “into 27-m^2”, “Approximately 20” for “Approximately 50”, “Agriotes sordidus, is observed for the untreated control.” for “Agriotes lineatus.”

The mark [3] stands for this setting: dose of fipronil 6 g per hectare.
Where [4] appears, read: dose of fipronil 50 g per hectare.

Structures are written as SMILES.

As for `N#Cc1nn(-c2c(Cl)cc(C(F)(F)F)cc2Cl)c(N)c1[S+]([O-])C(F)(F)F` (stereo not shown) [fipronil, 5-amino-3-cyano-1-[2,6-di-chloro-4-(trifluoromethyl)phenyl]-4-[(trifluoromethyl)-sulphinyl]-1H-pyrazole], the “plants observed per 10 meters of furrow” value was 40 plants per 10 meters of furrow in assay [1] (setting [3]), 49.8 plants per 10 meters of furrow in assay [1] (setting [4]), 49 plants per 10 meters of furrow in assay [2] (setting [3]) and 49 plants per 10 meters of furrow in assay [2] (setting [4]).
